Laboratory results: patent US8575091B1, “Amylin analogues and pharmaceutical compositions thereof” (Novo Nordisk A/S, priority 2012, dated 2013)
pEC50, pIC50: −log10 of the molar value. Like-named read-outs stand apart in the source and are kept apart here. Numbered stars: 1 amine (or outer) side, 2 acyl side, 3 side chain; on linkers, the order of the positions; unused ones are H or OH. Bridge positions count the residues as written; N and C are the ends. Peptide text beside a SMILES is read from it. * marks the point of attachment. C20 diacid = O=C(O)CCCCCCCCCCCCCCCCCCC(=O)*; γGlu = O=C(O)[C@H](CCC(=O)[*:2])N[*:1]

How the values were obtained:
human amylin receptor = biological target: T1, human amylin receptor (Homo sapiens, UniProt O60896+P30988); test: Assay (V) binding to the human amylin receptor (SPA, 125I-rat amylin); conditions: human amylin receptor membranes, SPA; read-out: hAmylin-R bind IC50
T1 construct: expressed in transfected cells
T1 sequence (P30988 25-474): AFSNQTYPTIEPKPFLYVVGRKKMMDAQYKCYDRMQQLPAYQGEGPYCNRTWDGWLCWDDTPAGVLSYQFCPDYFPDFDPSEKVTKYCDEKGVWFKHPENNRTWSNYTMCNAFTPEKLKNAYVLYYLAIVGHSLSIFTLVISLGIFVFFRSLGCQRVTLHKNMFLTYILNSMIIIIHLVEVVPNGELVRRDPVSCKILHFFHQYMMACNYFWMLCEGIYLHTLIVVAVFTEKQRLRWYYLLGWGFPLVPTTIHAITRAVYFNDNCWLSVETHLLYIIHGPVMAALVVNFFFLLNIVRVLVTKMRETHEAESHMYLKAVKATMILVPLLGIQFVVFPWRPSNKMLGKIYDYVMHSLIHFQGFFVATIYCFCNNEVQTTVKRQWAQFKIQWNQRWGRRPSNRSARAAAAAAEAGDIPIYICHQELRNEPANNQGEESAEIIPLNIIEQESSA
T1 sequence (O60896 24-148 partner): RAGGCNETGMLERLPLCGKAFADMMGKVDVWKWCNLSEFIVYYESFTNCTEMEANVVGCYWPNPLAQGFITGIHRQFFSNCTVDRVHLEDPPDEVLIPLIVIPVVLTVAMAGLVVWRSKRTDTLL
In short: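 SPA competition binding on membranes from Amylin 3(a)/CRE-luc cells, 35 ng/μL membranes with 0.05 mg/well beads. Buffer 50 mM Hepes pH 7.4, 1 mM CaCl2, 5 mM MgCl2, 0.1% OA, 0.02% Tween20. IC50 from one-site competition fit as affinity measure.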

[1] = biological target: T2, human amylin receptor (amylin 3(a) receptor: human calcitonin receptor + RAMP-3) (Homo sapiens, UniProt O60896+P30988); test: Assay (II)a functional assay, human amylin receptor (CRE luciferase, BHK cells); format: cell-based; conditions: for pEC50: read-out: hAmylin-R funct. EC50
T2 construct: expressed in transfected cells
T2 sequence (P30988 25-474): T1 sequence (P30988 25-474)
T2 sequence (O60896 24-148 partner): T1 sequence (O60896 24-148 partner)

[2] = biological target: T3, human calcitonin receptor (Homo sapiens, UniProt P30988); test: Assay (VII) binding to the human calcitonin receptor (SPA, 125I-Calcitonin); conditions: read-out: hCTR bind IC50;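 also: cell membranes coupled to SPA beads, competitive displacement read by scintillation counting, IC50 derived from a one-site competition fit as a measure of receptor affinity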
T3 construct: expressed in transfected cells
T3 sequence (P30988 25-474): T1 sequence (P30988 25-474)

rat amylin receptor = biological target: T4, rat amylin receptor (Rattus norvegicus, UniProt P32214+Q9JJ73); test: Assay (VI) binding to the rat amylin receptor; conditions: rCTR bind IC50 divided by rAmylin-R bind IC50
T4 construct: expressed in transfected cells; host or cells: BHK tk'ts 13 (transient, FuGENE 6), membranes
T4 sequence (P32214 25-479 isoform P32214-2 limits assumed): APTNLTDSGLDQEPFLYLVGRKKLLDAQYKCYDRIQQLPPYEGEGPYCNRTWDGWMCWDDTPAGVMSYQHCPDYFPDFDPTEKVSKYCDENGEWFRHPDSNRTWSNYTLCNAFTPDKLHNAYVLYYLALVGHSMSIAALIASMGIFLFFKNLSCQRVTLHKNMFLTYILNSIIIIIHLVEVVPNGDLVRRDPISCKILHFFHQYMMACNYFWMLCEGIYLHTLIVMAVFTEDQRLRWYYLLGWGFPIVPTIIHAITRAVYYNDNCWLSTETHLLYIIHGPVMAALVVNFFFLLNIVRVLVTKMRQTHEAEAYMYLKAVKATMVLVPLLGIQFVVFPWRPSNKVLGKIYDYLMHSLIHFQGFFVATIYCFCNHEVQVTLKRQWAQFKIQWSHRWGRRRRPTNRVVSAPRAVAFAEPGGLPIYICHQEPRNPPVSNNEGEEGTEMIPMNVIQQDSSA
T4 sequence (Q9JJ73 23-147 partner): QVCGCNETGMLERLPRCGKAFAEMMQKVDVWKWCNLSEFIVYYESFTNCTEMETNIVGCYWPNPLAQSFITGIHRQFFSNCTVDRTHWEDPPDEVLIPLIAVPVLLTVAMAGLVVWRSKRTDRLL
Procedure: Assay (VI)—Determination of the Binding to the Rat Amylin Receptor
The assay was performed as described above (Assay (V)—Determination of binding to the human amylin receptor) with the exception that we used membranes prepared from BHK tk'ts 13 cells that were transiently transfected with the rat calcitonin receptor rat RAMP 3 at an equimolar ratio […]. The BHK tk'ts 13 cells were transiently transfected with rat calcitonin receptor using FuGENE® 6 (Roche), according to the manufacturer's recommendations. Cells were grown in DMEM with 10% FBS and 1% Pen/Strep. Approximately 48 hours after transfection, the cells were harvested and membranes were prepared.

[3] = biological target: T3, human calcitonin receptor; test: Assay (II)a functional assay, human calcitonin receptor (CRE luciferase, BHK cells);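 also: luminescence from a CRE-driven luciferase reporter, read by single photon counting after cells were exposed to test samples for 3 h at 37 °C under 5% CO2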; format: cell-based; conditions: read-out: hCTR funct. EC50
[4] = Table 6, human functional selectivity (hCTR EC50 / hAmylin-R EC50)
[5] = Table 6a, human functional selectivity (hCTR EC50 / hAmylin-R EC50), at least 5
[6] = Table 6j, hCTR funct. EC50 / hAmylin-R funct. EC50
[7] = Table 6k, hCTR funct. EC50 / hAmylin-R funct. EC50

pIC50 (human amylin receptor)	Ratio hCT/hAmylin funct. [1, 4]	Ratio hCT/hAmylin funct. [1, 5]	Ratio hCT/hAmylin funct. [1, 6]	Ratio hCT/hAmylin funct. [1, 7]	pEC50 ([1]; functional assay, human amylin receptor)	pIC50 [2]	Ratio rCT/rAmylin binding (rat amylin receptor; Table 7b)	Ratio rCT/rAmylin binding (rat amylin receptor)	pEC50 [3]	Ratio hCT/hAmylin funct. ([1]; Table 6i, hCTR funct. EC50 / hAmylin-R funct. EC50)	pEC50 ([1]; Table 6i, human amylin receptor functional)	pEC50 ([1]; Table 6j, human amylin receptor functional)	Ratio rCT/rAmylin binding (rat amylin receptor; Table 7c)	SMILES
9.24	8.7	8.7	8.7	8.7	10.00	8.10	67.0	67.0	9.07					CC[C@H](C)[C@H](NC(=O)[C@H](C)NC(=O)CNC(=O)[C@H](Cc1ccccc1)NC(=O)[C@H](CC(N)=O)NC(=O)[C@@H]1CCCN1C(=O)[C@H](CO)NC(=O)[C@H](CO)NC(=O)[C@H](Cc1c[nH]cn1)NC(=O)[C@H](CCCNC(=N)N)NC(=O)[C@H](CC(C)C)NC(=O)[C@H](Cc1ccccc1)NC(=O)[C@H](CC(N)=O)NC(=O)[C@H](C)NC(=O)[C@H](CC(C)C)NC(=O)[C@H](CCCNC(=N)N)NC(=O)[C@H](CCC(N)=O)NC(=O)[C@@H](NC(=O)[C@H](C)NC(=O)[C@@H]1CSSC[C@H](NC(=O)[C@H](CCCCN)NC(=O)CC[C@H](NC(=O)CCCCCCCCCCCCCCCCCCC(=O)O)C(=O)O)C(=O)N[C@@H](CC(N)=O)C(=O)N[C@@H]([C@@H](C)O)C(=O)N[C@@H](C)C(=O)N[C@@H]([C@@H](C)O)C(=O)N1)[C@@H](C)O)C(=O)N1CCC[C@H]1C(=O)N[C@@H](CO)C(=O)N[C@@H](CO)C(=O)N[C@H](C(=O)N[C@@H](CC(N)=O)C(=O)N[C@H](C(=O)NCC(=O)N1CCC[C@H]1C(=O)N[C@@H](CCC(=O)O)C(=O)N[C@H](C(=O)N[C@@H](Cc1ccc(O)cc1)C(N)=O)[C@@H](C)O)C(C)C)[C@@H](C)O [Example 29] ({C20 diacid-γGlu}-KCNTATCATQRLANFLRHSSPNFGAIPSSTNVGPETY-NH2; disulfide 2-7)
10.00	6.6	6.6	6.6	6.6		8.96	34.0	34.0	9.49	6.6	10.30			CC[C@H](C)[C@H](NC(=O)[C@H](C)NC(=O)CNC(=O)[C@H](Cc1ccccc1)NC(=O)[C@H](CC(N)=O)NC(=O)[C@@H]1CCCN1C(=O)[C@H](CO)NC(=O)[C@H](CO)NC(=O)[C@H](Cc1c[nH]cn1)NC(=O)[C@H](CCCNC(=N)N)NC(=O)[C@H](CC(C)C)NC(=O)[C@H](Cc1ccccc1)NC(=O)[C@H](CCC(=O)O)NC(=O)[C@H](C)NC(=O)[C@H](CC(C)C)NC(=O)[C@H](CCCNC(=N)N)NC(=O)[C@H](CCC(N)=O)NC(=O)[C@@H](NC(=O)[C@H](C)NC(=O)[C@@H]1CSSC[C@H](NC(=O)[C@H](CCCCN)NC(=O)CC[C@H](NC(=O)CCCCCCCCCCCCCCCCCCC(=O)O)C(=O)O)C(=O)N[C@@H](CC(N)=O)C(=O)N[C@@H]([C@@H](C)O)C(=O)N[C@@H](C)C(=O)N[C@@H]([C@@H](C)O)C(=O)N1)[C@@H](C)O)C(=O)N1CCC[C@H]1C(=O)N[C@@H](CO)C(=O)N[C@@H](CO)C(=O)N[C@H](C(=O)N[C@@H](CC(N)=O)C(=O)N[C@H](C(=O)NCC(=O)N1CCC[C@H]1C(=O)N[C@@H](CC(N)=O)C(=O)N[C@H](C(=O)N[C@@H](Cc1ccc(O)cc1)C(N)=O)[C@@H](C)O)C(C)C)[C@@H](C)O [Example 32] ({C20 diacid-γGlu}-KCNTATCATQRLAEFLRHSSPNFGAIPSSTNVGPNTY-NH2; disulfide 2-7)
8.94	8.4	8.4	8.4	8.4		7.13	52.0	52.0	8.58			9.50	52.0	CC[C@H](C)[C@H](NC(=O)[C@H](C)NC(=O)CNC(=O)[C@H](Cc1ccccc1)NC(=O)[C@H](CC(N)=O)NC(=O)[C@@H]1CCCN1C(=O)[C@H](CO)NC(=O)[C@H](CO)NC(=O)[C@H](Cc1c[nH]cn1)NC(=O)[C@H](CCCNC(=N)N)NC(=O)[C@H](CC(C)C)NC(=O)[C@H](Cc1ccccc1)NC(=O)[C@H](CC(N)=O)NC(=O)[C@H](C)NC(=O)[C@H](CC(C)C)NC(=O)[C@H](CCCNC(=N)N)NC(=O)[C@H](CCC(N)=O)NC(=O)[C@@H](NC(=O)[C@H](C)NC(=O)[C@@H]1CSSC[C@H](NC(=O)[C@H](CCCCN)NC(=O)CC[C@H](NC(=O)CCCCCCCCCCCCCCCCCCC(=O)O)C(=O)O)C(=O)N[C@@H](CC(N)=O)C(=O)N[C@@H]([C@@H](C)O)C(=O)N[C@@H](C)C(=O)N[C@@H]([C@@H](C)O)C(=O)N1)[C@@H](C)O)C(=O)N1CCC[C@H]1C(=O)N[C@@H](CO)C(=O)N[C@@H](CO)C(=O)N[C@H](C(=O)N[C@@H](CC(N)=O)C(=O)N[C@H](C(=O)NCC(=O)N[C@@H](CO)C(=O)N[C@@H](CCCCN)C(=O)N[C@H](C(=O)N[C@@H](Cc1ccc(O)cc1)C(N)=O)[C@@H](C)O)C(C)C)[C@@H](C)O [Example 34]
